Data reported in US20260070945A1, “MACROCYCLIC IMMUNOMODULATORS” (Bristol-Myers Squibb Company, priority 2022, published 2026).
*1 amine or outer side, *2 acyl side, *3 side chain or, on linkers, in order; H or OH if unused. Where a SMILES comes first, the peptide text is derived from it. Bridges are numbered along the chain shown (N, C = ends). [ ]: non-standard residue; d: D form. The star is where a group is joined. ξ: configuration not given here. Phe(3-CF3) = N[C@@H](Cc1cccc(C(F)(F)F)c1)C(=O)O; Phe(4-COOH) = N[C@@H](Cc1ccc(C(=O)O)cc1)C(=O)O; Bip = N[C@@H](Cc1ccc(-c2ccccc2)cc1)C(=O)O; Phe(3-Me) = Cc1cccc(C[C@H](N)C(=O)O)c1; γGlu = O=C(O)[C@H](CCC(=O)[*:2])N[*:1]; Abu(3S-NH2) = C[C@H](N)[C@H](N)C(=O)O; NH(CH2)12COOH = O=C(O)CCCCCCCCCCCCN*; Val(3-OH) = CC(C)(O)[C@H](N)C(=O)O; mTyr = N[C@@H](Cc1cccc(O)c1)C(=O)O; 4Pal = N[C@@H](Cc1ccncc1)C(=O)O; Cha = N[C@@H](CC1CCCCC1)C(=O)O; Cit = NC(=O)NCCC[C@H](N)C(=O)O; Ile(3ξ) = CCC(C)[C@H](N)C(=O)O; Thr(3ξ) = CC(O)[C@H](N)C(=O)O; Carboxymethyl = O=C(O)C*; NMeA = CN[C@@H](C)C(=O)O; Orn = NCCC[C@H](N)C(=O)O; Aun = NCCCCCCCCCCC(=O)O; Dab = NCC[C@H](N)C(=O)O; Dap = NC[C@H](N)C(=O)O; AEEA = NCCOCCOCC(=O)O

Molecular target: T1, PD-1/PD-L1 interaction (PE-labeled human PD-L1-Ig binding to Jurkat cell line over-expressing human PD-1) (Homo sapiens, UniProt Q15116)
T1 construct: expressed in transfected cells; host or cells: Jurkat
Experiment: Jurkat-PD-1 Cell Binding High-Content Screening Assay (CBA)
Settings: Jurkat-hPD-1 cells, PE-labeled PD-L1-Ig 20 nM final; read-out: Jurkat HPD1 PDL1 IC50
Procedure, shortened: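 Jurkat-hPD-1 cells (8×10^3/well) in DMEM with 10% fetal calf serum were preincubated with compound for 2 h at 37 °C. PE-labeled PD-L1-Ig was then added at 20 nM final for 1 h. Cells were fixed in paraformaldehyde with Hoechst 33342, washed and imaged by high-content imaging.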

T1 sequence (Q15116 25-288): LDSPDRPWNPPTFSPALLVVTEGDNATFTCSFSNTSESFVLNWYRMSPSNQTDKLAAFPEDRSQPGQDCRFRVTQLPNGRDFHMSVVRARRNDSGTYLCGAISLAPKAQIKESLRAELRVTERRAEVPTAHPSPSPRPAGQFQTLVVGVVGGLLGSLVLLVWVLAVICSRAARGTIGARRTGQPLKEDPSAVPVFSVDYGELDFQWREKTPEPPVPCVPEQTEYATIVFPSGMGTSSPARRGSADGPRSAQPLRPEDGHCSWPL

Structure (SMILES)	IC50
CC(C)C[C@@H]1NC(=O)[C@H](Cc2c[nH]c3ccccc23)NC(=O)[C@H](CC(=O)O)NC(=O)[C@H](Cc2ccc(C(=O)O)cc2)NC(=O)[C@H](Cc2ccc(OCC(=O)O)cc2)NC(=O)CSC[C@@H](C(=O)NCC(=O)N[C@@H](CN)C(=O)NCC(=O)NCCCCCCCCCCC(=O)O)NC(=O)[C@H](CO)NC(=O)[C@H](C(C)C)NC(=O)[C@H](CC2CCCCC2)NC(=O)[C@H](CCN)NC(=O)[C@@H](CC(C)C)NC(=O)[C@H](C)N(C)C(=O)[C@H](C(C)C)NC(=O)[C@H](Cc2ccc(-c3ccccc3)cc2)NC1=O [Example 1028] ({CH2CO}-Y(Carboxymethyl)[Phe(4-COOH)]DWL[Bip]V[NMeA][dL][Dab][Cha]VSCG[Dap]G[Aun]-OH; thioether N-14)	14.7 nM
CC(=O)NCCCC[C@@H]1NC(=O)[C@H](C(C)(C)O)NC(=O)[C@H](CC2CCCCC2)NC(=O)[C@H](CCN)NC(=O)[C@@H](CC(C)C)NC(=O)[C@H](C)N(C)C(=O)[C@H](CCCNC(N)=O)NC(=O)[C@H](Cc2ccc(-c3ccccc3)cc2)NC(=O)[C@H](Cc2ccc(C(=O)O)cc2)NC(=O)[C@H](Cc2cccc(C(F)(F)F)c2)NC(=O)[C@H](CC(=O)O)NC(=O)[C@H](Cc2ccc(OCC(=O)O)cc2)NC(=O)[C@H]([C@H](C)N)NC(=O)CSC[C@@H](C(=O)N[C@@H](CCN)C(=O)NCCOCCOCC(=O)N[C@@H](CCC(=O)NCCOCCOCC(=O)NCCCCCCCCCCCCC(=O)O)C(=O)O)NC1=O [Example 1206] ({CH2CO}-[Abu(3S-NH2)]Y(Carboxymethyl)D[Phe(3-CF3)][Phe(4-COOH)][Bip][Cit][NMeA][dL][Dab][Cha][Val(3-OH)]K(Ac)C[Dab][AEEA][γGlu][AEEA]-{NH(CH2)12COOH}; thioether N-14)	6.9 nM

Results, then the compound that gave them:

IC50	Structure (SMILES)
18.9 nM	Cc1cccc(C[C@@H]2NC(=O)[C@H](CC(=O)O)NC(=O)[C@H](Cc3ccc(OCC(=O)O)cc3)NC(=O)[C@H](C(C)O)NC(=O)CSC[C@@H](C(=O)N[C@@H](CCN)C(=O)NCCOCCOCC(=O)NCCCCCCCCCCC(=O)O)NC(=O)[C@H](CCC(N)=O)NC(=O)[C@H](C(C)C)NC(=O)[C@H](CC3CCCCC3)NC(=O)[C@H](CCN)NC(=O)[C@@H](CC(C)C)NC(=O)[C@H](C)N(C)C(=O)[C@H](Cc3ccc(OCC(=O)O)cc3)NC(=O)[C@H](Cc3ccc(-c4ccccc4)cc3)NC(=O)[C@H](Cc3ccc(C(=O)O)cc3)NC2=O)c1 (stereo partly drawn) [Example 2475] ({CH2CO}-[Thr(3ξ)]Y(Carboxymethyl)D[Phe(3-Me)][Phe(4-COOH)][Bip]Y(Carboxymethyl)[NMeA][dL][Dab][Cha]VQC[Dab][AEEA][Aun]-OH; thioether N-14)
226 nM	CC(C)C[C@H]1NC(=O)[C@H](C)N(C)C(=O)[C@H](Cc2ccc(O)cc2)NC(=O)[C@H](Cc2ccc(-c3ccccc3)cc2)NC(=O)[C@H](Cc2ccc(O)cc2)NC(=O)[C@H](Cc2cccc(O)c2)NC(=O)[C@H](CC(=O)O)NC(=O)[C@H](Cc2ccc(OCC(=O)O)cc2)NC(=O)[C@H](CN)NC(=O)CSC[C@@H](C(=O)N[C@@H](CCN)C(=O)NCCCCCCCCCCC(=O)O)NC(=O)[C@H](CCCN)NC(=O)[C@H](C(C)C)NC(=O)[C@H](CC2CCCCC2)NC(=O)[C@H](CCN)NC1=O [Example 1257] ({CH2CO}-[Dap]Y(Carboxymethyl)D[mTyr]Y[Bip]Y[NMeA][dL][Dab][Cha]V[Orn]C[Dab][Aun]-OH; thioether N-14)
106 nM	CCC(C)[C@@H]1NC(=O)[C@H](Cc2ccc(-c3ccccc3)cc2)NC(=O)[C@H](C(C)C)NC(=O)[C@H](Cc2c[nH]c3ccccc23)NC(=O)[C@H](CC(=O)O)NC(=O)[C@H](Cc2ccc(O)cc2)NC(=O)[C@H](Cc2ccncc2)NC(=O)CSC[C@@H](C(=O)N[C@@H](CN)C(=O)NCCOCCOCC(=O)NCCCCCCCCCCC(=O)O)NC(=O)[C@H](C(C)O)NC(=O)[C@H](C(C)C)NC(=O)[C@H](CC2CCCCC2)NC(=O)[C@H](CC(N)=O)NC(=O)[C@@H](CC(C)C)NC(=O)[C@H](C)N(C)C1=O (stereo partly drawn) [Example 2068] ({CH2CO}-[4Pal]YDWV[Bip][Ile(3ξ)][NMeA][dL]N[Cha]V[Thr(3ξ)]C[Dap][AEEA][Aun]-OH; thioether N-14)
